Where only a bound is given, the exact number is not on record here.

Experimental findings from a melting point compilation (Tetko et al.; mined from patent text by program, amines drawn as free bases though some values may be those of a salt) are described below.

Molecule `CCCCSC(=S)N1Cc2[nH]c3ccccc3c2CC1C(=O)O` (stereo unspecified) yielded a melting point of 163 to 164 °C.

Molecule `COC(=O)c1c(NCc2ccc(OC)c(Cl)c2)nc(SC)nc1OC` came in with a melting point of 124 to 126 °C.

The molecule `CCOCn1cc(F)c(=O)n(C(=O)c2cccc(C(=O)Oc3nc(OC(=O)c4ccc(Cl)cc4)ccc3C#N)c2)c1=O` had a melting point of 156 to 158 °C.

`CCCOc1ccccc1-c1nc2nc(S(C)(=O)=O)ncc2c(=O)[nH]1` returned a melting point of 217 to 219 °C.

Consider `C[C@]1(CN)COc2cccc(-c3ccccc3)c2O1`, for which the melting point was in the range of 130 to 133 °C.

For `CC(C)(C)C(O)(C=Cc1ccc(Cl)cc1)Cn1cncn1` (stereo unspecified), the melting point was in the range of 81 to 83.5 °C.

The molecule `Cc1ccccc1CCCc1c(C(C)C)nc(C(C)C)c(CO)c1-c1ccc(F)cc1` had a melting point of 65 to 70 °C.

For `CS(=O)(=O)c1ccc(-c2nn3cc(C(F)(F)F)oc3c2-c2ccc(F)cc2)cc1`, the melting point was in the range of 186 to 189 °C.

Consider `CCOC(=O)C1N=C(c2ccccc2)c2cc(Cl)ccc2N(C)C1=O` (stereo unspecified), for which the melting point is 180 °C.

Consider `FC(F)(F)c1cccc(N2CCN(Cc3ccc4c(c3)NCCN4)CC2)c1`, for which the melting point lay in the range of 88 to 91 °C.

Molecule `COC1(c2cccc(Oc3nc(-c4ccccc4)c(-c4ccc(S(N)(=O)=O)cc4)o3)c2)CCOCC1` came in with a melting point of 145 to 147 °C.

For the molecule `COCCC(=O)c1cc2c(=O)n(NS(C)(=O)=O)c(=O)[nH]c2cc1C(F)(F)F`, the melting point lay in the range of 186 to 191 °C.

Take `O=C(O)c1cc(Cl)cc2c1[nH]c1ccccc12`: the melting point is 245 °C.

As to `NC(=O)Cn1cc2c(c1)-c1ccc(Cl)cc1C(c1ccccc1)=NC2`, the melting point was 236 to 237 °C.

In turn, `CCOC(Nc1ccc(C(=O)O)cc1)C(=O)c1ccc(-c2ccccc2)cc1` (stereo unspecified) came in with a melting point of 179 °C.

Consider `O=C(NCc1cn(-c2ccc(N3CCSCC3)c(F)c2)nn1)c1cnccn1`, for which the melting point lay within 216 to 218 °C.

The molecule `Cn1cncc1C(O)(c1ccc(Cn2cnnn2)cc1)c1ccc2c(c1)c(-c1cccc(Cl)c1)cc(=O)n2C` (stereo unspecified) showed a melting point of 160 °C.

In turn, `O=C(O)c1cn(-c2csnn2)c2cc(F)c(F)cc2c1=O` returned a melting point of 239 to 244 °C.

As for `O=C(Cc1ccccc1O)N1CCOCC1`, the melting point worked out at 122 °C.

On to `CC(O)(CCSc1cc(C(C)(C)C)c(O)c(C(C)(C)C)c1)CC(=O)CCSc1cc(C(C)(C)C)c(O)c(C(C)(C)C)c1` (stereo unspecified), for which the melting point is 108 to 110 °C.

`COc1ccc(-n2cnc3ccc(-c4nnc(SCc5cccc(C(F)(F)F)c5)o4)cc32)cc1` displayed a melting point of 174 to 175 °C.

`CSc1nccn1N=Cc1cc(C(C)(C)C)c(O)c(C(C)(C)C)c1`: the melting point was 181 to 183 °C.

For the molecule `CCN(CC)CCC1CCCN(C(=O)N2c3ccccc3NC(=O)c3cccnc32)C1` (stereo unspecified), the melting point was 110 to 113 °C.

On to `C=C(C)C(=O)OCc1ccc(O)c(C=O)c1`, for which the melting point lay within 82 to 84 °C.

The molecule `N#Cc1c(C(F)(F)F)oc2cc(O)ccc2c1=O` yielded a melting point of 255 to 257 °C.

As for `O=C(O)c1c[nH]c2c(=O)c3cc(Cl)ccc3oc2c1=O`, the melting point is 325 to 327 °C.

`CCOC(=O)C1=C(C)N(C)C(C)=C(C(=O)OC)C1c1cc([N+](=O)[O-])ccc1Cl` (stereo unspecified) had a melting point of 164 °C.

The molecule `CC(CN1CCCC1)N1c2ccccc2Sc2ccc(C(=O)NCc3cccc(F)c3)cc21` (racemic) showed a melting point of 165 °C.

The molecule `CC(=O)C1=C(O)C(C(=O)C=Cc2ccccc2)C(=O)OC1=O` (stereo unspecified) gave a melting point of 154 to 155 °C.

With `CCCOc1ccccc1C1=NC(=O)C2=CN=NC2=N1`, the melting point was 170 to 171 °C.

`O=C(O)C1(c2ccc(Cl)cc2)OCC2(CO1)c1ccccc1Oc1ccccc12` had a melting point of 244 to 246 °C.

In turn, `CCOC(=O)C(C)(C)c1ccc(-n2c(-c3cc(-c4cnc5ccccc5c4)ccn3)cn(C)c2=O)cc1` came in with a melting point of 158 °C.

On to `Cc1ccc(C(=O)Nc2ccc(CN3CCCCC3)c(C(F)(F)F)c2)cc1-c1ccc2cnncc2c1`, for which the melting point is 194 to 195 °C.

In turn, `CCN(CC)CCOc1ccc(Nc2ncc3c(n2)N(C)C(=O)N(c2c(C)cccc2C)C3)cc1` yielded a melting point of 58 °C.

In turn, `COc1ccc([C@@H](CO)[C@H]2CCCCN2C(=O)OC(C)(C)C)cc1` gave a melting point of 115 to 117 °C.

With `C=C(C)C(C)n1c(=O)c(C(C)C)cc2c3c(cc(C)c21)C(C)C(C)(CI)O3` (stereo unspecified), the melting point is 191 to 192 °C.

The molecule `COC1(c2ccc(C(C)C)cc2OCc2ccccc2)C(=O)c2ccccc2C1=O` gave a melting point of 140 to 144 °C.

As for `Cc1c(NC(=O)CC(C)(C)C)c(C)c2c(c1C(O)CO)OCC2c1ccc(C(C)C)cc1` (stereo unspecified), the melting point was in the range of 159 to 161 °C.

The molecule `Cc1cc(C)n(-c2cc(F)c(C#N)cc2F)n1` gave a melting point of 122 °C.

Consider `COC(=O)c1ccc(OCC2CC(=O)N(c3ccc(OCC(C)C)cc3)C2)cc1` (stereo unspecified), for which the melting point amounted to 118 °C.

On to `O=C(Nc1ccccc1)Nc1ccc2ccc(-c3cccc(Br)c3)nc2n1`, for which the melting point was found to be 285 °C.

`COC(=O)COc1ccc(CC2SC(=O)NC2=O)cc1` (stereo unspecified) showed a melting point of 100 to 106 °C.

On to `CCc1nc2c(c(C)c(C)n3nnnc23)n1CCOCCN1CCCS1(=O)=O`, for which the melting point was 176 to 178 °C.

`N#Cc1ccc2cc(Cc3cc4ccc(C#N)cc4o3)oc2c1` registered a melting point of 207 to 209 °C.

`CCCC(=O)c1ccc(OCCC(=O)O)c(Cl)c1Cl` had a melting point of 138 to 139 °C.

In turn, `COc1ccc2c(c1)CCC1C2C(OC(C)=O)CC2(C)C(OC(C)=O)CCC12` (stereo unspecified) displayed a melting point of 214 to 215 °C.

Molecule `O=C(Cc1ccc(Cl)cc1Cl)c1cccnc1` came in with a melting point of 78 to 79 °C.

Molecule `COc1ccc(C(=O)C2C(=O)c3cccc(NC(=O)Oc4ccccc4)c3C2=O)cc1` (stereo unspecified) gave a melting point of 256 to 258 °C.

The molecule `O=c1c(CCCc2ccncc2)cc2cccnc2n1-c1cccnc1` came in with a melting point of 178 to 180 °C.

For the molecule `OC(=S)c1ccccc1-c1ccccc1`, the melting point lay in the range of 178 to 180 °C.

Regarding `CC(C)(C)OC(=O)C(Nc1ccccc1)C(=O)N1CCCC1` (racemic), the melting point worked out at 80 °C.

With `COCCOc1ccc(/C=C/C(=O)O)c(OCc2nc(-c3ccccc3)oc2C)c1`, the melting point fell in the range of 194 to 196 °C.

With `Cc1ccc(S(=O)(=O)OCCCC2CCN(C(c3ccccc3)(c3ccccc3)c3ccccc3)CC2)cc1`, the melting point is 131 °C.

The molecule `CCSC1(Sc2ccccc2)CCC2C3CCC4=CC(=O)C=CC4(C)C3(F)C(OC(C)=O)CC21C` (stereo unspecified) came in with a melting point of 145 to 148 °C.

Molecule `COC(=O)C1Cc2cc3c(cc2C(c2ccc([N+](=O)[O-])cc2)=NN1)OCO3` (stereo unspecified) showed a melting point of 161 to 164 °C.

On to `CCCCOCCOc1ccc(-c2ccc3c(c2)C=C(C(=O)Nc2ccc(S(=O)CCc4nncn4CCC)cc2)CCN3CCC)cc1` (stereo unspecified), for which the melting point fell in the range of 93 to 101 °C.

`CC1CCN(CCC(=O)Nc2ccc3c(=O)c4ccc(NC(=O)CCN5CCC(C)CC5)cc4[nH]c3c2)CC1` had a melting point above 320 °C.

In the case of `O=C1NC(=O)C(c2ccco2)N1` (stereo unspecified), the melting point was 145 to 146 °C.

Molecule `CCCCc1nc2c(N)nc3cc(-c4cccnc4)ccc3c2n1CCNC(=O)NC(C)C` returned a melting point of 240 to 241 °C.

For `COc1cccc(OC)c1C(=O)P(=O)(C(=O)c1c(C)cc(C)cc1C)c1ccccc1` (stereo unspecified), the melting point lay within 126 to 127 °C.

For the molecule `CC(C)Oc1c(C(=O)O)sc2c1CN(C(=O)OC(C)(C)C)CC2`, the melting point was 128 to 129 °C.

`Nc1nc(-c2cc(Cl)ccc2Cl)nc(N2CCC(O)(c3ccccc3)CC2)n1` gave a melting point of 176 to 178 °C.

`O=C(O)CC[C@H](NCC(O)C(O)C(O)C(O)C(=O)O)C(=O)O` (stereo partly specified) yielded a melting point of 90 °C.

For `O=C1CC=Cc2ncncc21`, the melting point was in the range of 211 to 212 °C.

In the case of `O=C(NCCCCCCNC(=O)NS(=O)(=O)c1ccc(Br)o1)NS(=O)(=O)c1ccc(Br)o1`, the melting point lay in the range of 98 to 99 °C.

With `CCON1C(=O)c2ccccc2C1=O`, the melting point fell in the range of 95 to 97 °C.

With `OC(CNC1=NCCN1)c1ccccc1` (stereo unspecified), the melting point is 147 to 149 °C.

For the molecule `COCCNC(=O)c1cccc(-c2cccc3cc(Cc4ccc(F)c(OC)c4)sc23)c1`, the melting point is 70 to 71 °C.

As to `O=C(O)CCCCNC(=O)NCCCCC1CCSS1` (stereo unspecified), the melting point was in the range of 125 to 132 °C.

Consider `CNC(=O)c1cc(-c2c[nH]nc2-c2ccc(F)cc2)ccn1`, for which the melting point is 88 to 89 °C.

Molecule `CCOC(=O)c1cc(NCc2ccccc2)c(Nc2ccc(OC)cc2)c(S(N)(=O)=O)c1` had a melting point of 145 °C.

`COc1ccc(C(=O)N2c3ccccc3C(n3c4ccccc4c4ccccc43)CC2CCCCCOc2ccc(F)cc2)cc1OC` (stereo unspecified): the melting point lay within 157 to 159 °C.

Molecule `O=C(NC1CCN(CCCOc2ccc3ccc(=O)oc3c2)CC1)c1ccccc1` yielded a melting point of 157 to 158 °C.

In the case of `Cc1nnsc1C(=O)Nc1ccc(-n2nc(C(F)(F)F)cc2C)cc1`, the melting point lay within 51 to 53 °C.

`O=C(OCCO)c1ccc(C(=O)OCCO)cc1`: the melting point lay in the range of 108 to 110 °C.

For `CN1C(=O)[C@H](NC(=O)/C=C/c2ccc3c(c2)OCO3)N=C(c2ccccc2)c2ccccc21`, the melting point is 143 to 145 °C.

In turn, `COc1cc2c(cc1OC)C(=O)C(C)C(C)O2` (stereo unspecified) came in with a melting point of 171 to 172 °C.

Regarding `COCC#Cc1cc(F)c2ncc(C(=O)NCc3ccc(Cl)cc3)c(O)c2c1`, the melting point is 222 to 224 °C.

Molecule `NS(=O)(=O)CCCSc1ccc2ncnn2n1` came in with a melting point of 130 to 131 °C.

On to `N#CSc1ccc(N)c(F)c1`, for which the melting point is 36 to 38 °C.

The molecule `Cc1cc(C)cc(-c2cnn3c(-c4cccc(-c5nnn(CC6CCC6)n5)c4)ccnc23)c1` yielded a melting point of 64 °C.

On to `CC(C)n1nc(-c2cnc(N)nc2-c2ccc(F)c(F)c2)ccc1=O`, for which the melting point was 208 °C.

In turn, `CC(=O)C1=CC=C(C(C)(C)OO)C1` registered a melting point of 82 to 84 °C.

Molecule `CC(=O)Nc1c(F)ccc2c1CCC(C)N2` (stereo unspecified) displayed a melting point of 168 to 170 °C.

Turning to `CCCn1ncc2c(C3C(=O)Nc4ccc(C#N)cc43)ncnc21` (stereo unspecified), the melting point is above 300 °C.

With `COC(=O)/C=C/c1ccc(C)cc1C#N`, the melting point fell in the range of 95 to 96 °C.

As a reminder, the melting point is the temperature, or range, at which the solid turns liquid.
